Data on 7 compounds can be found in PubChem BioAssay (NCI).

Among the test systems are NCI/ADR-RES ovarian; SK-MEL-5 melanoma; PC-3 prostate; SF-268 CNS; UO-31 renal; SK-OV-3 ovarian; HCT-116 colon; SF-295 CNS; HL-60(TB) leukemia; SK-MEL-2 melanoma.
Common to all, as to experiment: inhibition of tumour cell growth, NCI panel, 48 h

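48-hour exposure; five concentrations; linearly interpolated endpoints. GI50 is the concentration that inhibits growth by half. The concentration for full growth arrest is given as TGI.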 Where a SMILES comes first, the peptide text is derived from it. Bridges are numbered along the chain shown (N, C = ends). [ ]: non-standard residue; d: D form. The star is where a group is joined. ξ: configuration not given here. ξDab(CH2SO3H) = NC(CCNCS(=O)(=O)O)C(=O)O; Heptanoyl(6-Me) = CC(C)CCCCC(=O)*; Dab = NCC[CH](N)C(=O)O

`Cc1nc(-c2nc(-c3ccc(OC(F)(F)F)cc3)no2)nn1Cc1cccc(N2CCC(S(C)(=O)=O)CC2)c1`: the GI50 with NCI/ADR-RES ovarian was 0.529 µM; in the test with SK-MEL-5 melanoma, below 0.01 µM; with PC-3 prostate, 3.59 µM; in the test on SF-268 CNS, above 40.9 µM; in the test on UO-31 renal, 1.46 µM; in the test on SK-OV-3 ovarian it was 16.3 µM. The GI50 in the test on HCT-116 colon is below 0.01 µM; in the test with SF-295 CNS, 0.0227 µM; with SK-MEL-2 melanoma it was above 35.1 µM. For the same compound, the TGI in the test with NCI/ADR-RES ovarian was 28.6 µM; in the test on SK-MEL-5 melanoma, 1.06 µM; in the test on PC-3 prostate it was 55.2 µM; in the test with SF-268 CNS it was above 100 µM; in the test on UO-31 renal it was above 100 µM; in the test on SK-OV-3 ovarian, 89.8 µM. For the same compound, the TGI with HCT-116 colon was above 100 µM; in the test with SF-295 CNS, above 77 µM; in the test on HL-60(TB) leukemia it was above 49.5 µM; with SK-MEL-2 melanoma, above 86.5 µM.
For the compound `CC[C@@H](C(=O)[C@H](C)[C@H](O)[C@@H](C)[C@H]1O[C@H]([C@@H](CC)C(=O)N(CC)CC)CC[C@H]1C)C1O[C@]2(C=C[C@@H](O)[C@]3(CC[C@@](C)([C@H]4CC[C@](O)(CC)[C@H](C)O4)O3)O2)[C@H](C)C[C@@H]1C` (some centres undefined), the GI50 was 2.56 µM in the test on NCI/ADR-RES ovarian; 1.76 µM in the test with SK-MEL-5 melanoma; 2.54 µM in the test on PC-3 prostate; 3.6 µM in the test with SF-268 CNS; 2.4 µM in the test with UO-31 renal; 3.06 µM in the test on SK-OV-3 ovarian. The GI50 with HCT-116 colon is 2.9 µM; in the test on SF-295 CNS, 2.49 µM; in the test on HL-60(TB) leukemia, 2.24 µM; in the test with SK-MEL-2 melanoma it was 3.19 µM. Besides, the TGI with NCI/ADR-RES ovarian worked out at 9.27 µM; in the test with SK-MEL-5 melanoma, 3.24 µM; with PC-3 prostate it was 11.9 µM; in the test with SF-268 CNS, 19.3 µM; in the test on UO-31 renal, 7.94 µM; in the test on SK-OV-3 ovarian, 10.1 µM. Besides, the TGI was determined as 12.5 µM in the test with HCT-116 colon, 9.81 µM in the test with SF-295 CNS, 5.13 µM in the test on HL-60(TB) leukemia and 9.21 µM in the test on SK-MEL-2 melanoma.
In the case of `CCN1C(=O)N(CC)C2C1NN=c1s/c(=C\c3ccco3)c(=O)n12` (centres undefined), the GI50 in the test with NCI/ADR-RES ovarian was 0.417 µM; in the test on SK-MEL-5 melanoma it was 0.415 µM; in the test on PC-3 prostate, 0.455 µM; in the test with SF-268 CNS, 0.791 µM; with UO-31 renal it was 0.852 µM; with SK-OV-3 ovarian it was 0.816 µM. Also, the GI50 was 0.436 µM with HCT-116 colon, 0.47 µM with SF-295 CNS, 0.284 µM in the test on HL-60(TB) leukemia and 0.84 µM in the test on SK-MEL-2 melanoma. The TGI was above 100 µM with NCI/ADR-RES ovarian; 55.3 µM in the test on SK-MEL-5 melanoma; above 100 µM in the test with PC-3 prostate; above 100 µM with SF-268 CNS; above 100 µM with UO-31 renal; above 100 µM with SK-OV-3 ovarian. The TGI in the test with HCT-116 colon was above 100 µM; with SF-295 CNS, above 44.6 µM; in the test on HL-60(TB) leukemia it was 6 µM; in the test with SK-MEL-2 melanoma, above 100 µM.
Regarding `CCC(C)C1NC(=O)C(CCNCS(=O)(=O)O)NC(=O)C(NC(=O)C(CCNCS(=O)(=O)O)NC(=O)C(NC(=O)C(CCNCS(=O)(=O)O)NC(=O)CCCCC(C)C)C(C)O)CCNC(=O)C(C(C)O)NC(=O)C(CCNCS(=O)(=O)O)NC(=O)C(CCNCS(=O)(=O)O)NC(=O)C(C(C)CC)NC1=O` (centres undefined) ({Heptanoyl(6-Me)}-[ξDab(CH2SO3H)]T[ξDab(CH2SO3H)][Dab][ξDab(CH2SO3H)]II[ξDab(CH2SO3H)][ξDab(CH2SO3H)]T; lactam 4-C; configuration not given here), the GI50 with NCI/ADR-RES ovarian is above 25 µM; in the test with SK-MEL-5 melanoma it was 1.96 µM; in the test with PC-3 prostate it was 7.97 µM; in the test on SF-268 CNS it was 6.88 µM; in the test on UO-31 renal it was above 25 µM; in the test on SK-OV-3 ovarian it was 8.13 µM. For the same compound, the GI50 in the test with HCT-116 colon is 7.33 µM; in the test on SF-295 CNS, 6.66 µM; in the test with HL-60(TB) leukemia it was 5.23 µM; in the test with SK-MEL-2 melanoma it was 4.9 µM. Moreover, the TGI was above 25 µM in the test with NCI/ADR-RES ovarian; 11.4 µM in the test on SK-MEL-5 melanoma; above 25 µM with PC-3 prostate; above 25 µM in the test on SF-268 CNS; above 25 µM in the test on UO-31 renal; above 25 µM with SK-OV-3 ovarian. The TGI was above 25 µM in the test with HCT-116 colon, above 25 µM in the test on SF-295 CNS, 16.9 µM in the test with HL-60(TB) leukemia and above 25 µM in the test with SK-MEL-2 melanoma.
With `COc1cc2ncnc(Nc3cccc(Cl)c3F)c2cc1OC(=O)N1CCN(C)C[C@H]1C`, the GI50 is above 36.3 µM with NCI/ADR-RES ovarian; above 39.8 µM with SK-MEL-5 melanoma; 35.3 µM in the test on PC-3 prostate; above 37.1 µM in the test with SF-268 CNS; 6.89 µM with UO-31 renal; 1.12 µM with SK-OV-3 ovarian. Also, the GI50 is above 38.5 µM in the test with HCT-116 colon, above 38.1 µM with SF-295 CNS, above 47.3 µM with HL-60(TB) leukemia and above 43.6 µM with SK-MEL-2 melanoma. Moreover, the TGI is above 75.2 µM in the test with NCI/ADR-RES ovarian; above 56.9 µM in the test with SK-MEL-5 melanoma; above 93.3 µM in the test with PC-3 prostate; above 75.3 µM in the test with SF-268 CNS; above 50.2 µM with UO-31 renal; above 32.1 µM with SK-OV-3 ovarian. Besides, the TGI in the test with HCT-116 colon was above 56.9 µM; with SF-295 CNS, above 56 µM; with HL-60(TB) leukemia, above 70.5 µM; in the test with SK-MEL-2 melanoma, above 61.1 µM.
For `c1ccc2cc(NCNc3ccc4ccccc4c3)ccc2c1`, the TGI in the test on NCI/ADR-RES ovarian was 72.5 µM; in the test with SK-MEL-5 melanoma it was 18.5 µM; in the test with PC-3 prostate, above 58.3 µM; in the test with SF-268 CNS it was above 100 µM; in the test with UO-31 renal it was 41.6 µM; in the test with SK-OV-3 ovarian, above 100 µM. Besides, the TGI was 43.4 µM in the test with HCT-116 colon, 33.9 µM with SF-295 CNS, 3.79 µM in the test on HL-60(TB) leukemia and 32.1 µM in the test on SK-MEL-2 melanoma.
With `N/C(=N/N=C/c1ccccc1)N/N=C\c1ccccc1`, the GI50 was 3.26 µM in the test with NCI/ADR-RES ovarian; 3.38 µM with SK-MEL-5 melanoma; 6.21 µM in the test with PC-3 prostate; 9.66 µM in the test with SF-268 CNS; 5.1 µM in the test on UO-31 renal; 6.37 µM with SK-OV-3 ovarian. The GI50 with HCT-116 colon was 4.5 µM; in the test on SF-295 CNS it was 3.96 µM; in the test with HL-60(TB) leukemia, 3.9 µM; in the test with SK-MEL-2 melanoma it was 3.58 µM. The TGI in the test with NCI/ADR-RES ovarian was above 100 µM; in the test on SK-MEL-5 melanoma, 13.3 µM; in the test with PC-3 prostate it was above 100 µM; in the test on SF-268 CNS, above 100 µM; with UO-31 renal it was 78.3 µM; with SK-OV-3 ovarian, above 100 µM. In addition, the TGI was above 100 µM in the test with HCT-116 colon, 32.4 µM in the test with SF-295 CNS, 23 µM in the test on HL-60(TB) leukemia and 43.9 µM in the test on SK-MEL-2 melanoma.
